Laboratory results reported in publication PMC9710782, “Plantaricin NC8 αβ rapidly and efficiently inhibits flaviviruses and SARS-CoV-2 by disrupting their envelopes” (PLOS ONE, 2022).

Tests used:
LGTV = tested on: LGTV; parameters: species or system Langat virus
[1] = tested on: Langat virus strain TP21 (LGTV); format: cell-based; conditions: n = 4
SARS-CoV-2 = SARS-CoV-2 virus inhibition (plaque) assay; format: cell-based, Severe Acute Respiratory Syndrome Coronavirus 2; conditions: read-out: concentration for 50% reduction of PFU / viral load (SARS-CoV-2)
IAV (H1N1/CApdm09) = test: Influenza A virus inhibition (plaque) assay; format: cell-based; conditions: read-out: concentration required to suppress IAV (by 50%)

| Sequence | permeabilization of LGTV particles (Sytox Green staining), single peptide (LGTV) | effect on virus infectivity (LGTV viral load) [1] | IC50 (SARS-CoV-2) [nM] | IC50 (IAV (H1N1/CApdm09)) [nM] |
| --- | --- | --- | --- | --- |
| DLTTKLWSSWGYYLGKKARWNLKHPYVQF [D-PLNC8 α] | not as efficient | – | – | – |
| LLGDFFRKSKEKIGKEFKRIVQRIKDFLRNLVPRTES [LL-37, human cathelicidin-derived antimicrobial peptide used as a control, reference compound] | – | did not affect virus infectivity | – | – |
| SVPTSVYTLGIKILWSAYKHRKTIEKSFNKGFYH [D-PLNC8 β] | permeabilized | – | ~500 | ~500 |
